Earlier results on one molecule are cited in US20040208853A1, “Method and device for sanitation using bacteriophages” (priority 2000, published 2004).

Each structure is given as a SMILES string.

The test system of this data set is bacterial counts on fresh-cut fruits. The settings on record: most effective chemical sanitizer.

Consider `OO` [hydrogen peroxide], for which the “maximum reduction rate in bacterial counts on fresh-cut fruits” value was 1.3 logs.
